For assay [1], the system named is S. mansoni newly transformed schistosomula (NTS). The assay is described as follows: Phenotypic screen with newly transformed schistosomula (NTS). Format: cell-based. The protocol:
The same 19 gallinamides were screened for bioactivity against S. mansoni newly transformed schistosomula (NTS), the postinvasive parasite stage that feeds on host blood.[40] In this primary assay, the NTS were exposed to 1 and 10 μM compounds for 3 days, and the resulting phenotypic responses were graded from 0 through 4, i.e., the least to the most severe (Table 2 and Table S1). […] The effects were more pronounced after 72 h, and when the higher, 10 μM, compound concentration was used (Table S1). […] Also, compared to gallinamide A and its analogs, 3 has an additional N-terminal N-acetamide modification that further reduces bioactivity (Table 2).
Phenotypic screens employed S. mansoni newly transformed schistosomula (NTS) and adults and were carried out as described previously.[18]−[20],[42] NTS were prepared by mechanically transforming infective larvae (cercariae).[40],[42] NTS (200–300 parasites) were incubated in flat-bottomed 96-well plates in 200 μL of Basch Medium 169 containing 5% (v/v) FBS, 100 U mL^–1 penicillin and 100 μg mL^–1 streptomycin (complete Basch medium)[75] at 5% CO2 and 37 °C.[76],[77] Inhibitors were added at final concentrations of 1 and 10 μM, and changes in phenotypes were observed under an inverted microscope every 24 h for up to 72 h.
A constrained nomenclature of “descriptors”[39],[42] was used to record the multiple and dynamic changes in movement, shape, and translucence that the schistosome parasite is capable of (Table S1 for NTS and Table S3 for adults). These descriptors were then converted into an ordinal “severity score” system ranging from 0 (no effect) to 4 (maximum effect), which allows for the relative comparison of compound effects.

Assay [2] deals with S. mansoni prolyl oligopeptidase (SmPOP). Briefly: Protease activity in extracts of adult worms treated with gallinamides, Cbz–Gly–Pro–AMC. It is filed as cell-based. To be noted: adult worms incubated with 5 μM compound for 24 h (Figure 2 legend: 48 h); extract assayed with Cbz–Gly–Pro–AMC at pH 8.0. On the procedure:
(§1) Adult mixed sex S. mansoni were incubated in the presence of 5 μM gallinamide A, 1, 6, or 9 for 24 h, and protein extracts therefrom were assayed with the cathepsins B and L substrate, Cbz–Phe–Arg–AMC. Protease activity was reduced by ∼95% relative to the activity of untreated controls (Figure 2A). For comparison, we also quantified the activity of the nondigestive proteolytic enzyme, S. mansoni prolyl oligopeptidase (SmPOP). This serine protease, which is localized in the tegument of adult worms, was assayed with the selective substrate Cbz–Gly–Pro–AMC.[44] SmPOP was unaffected by the gallinamide treatment.
(§2) Figure 2 SmCB1 is a target for gallinamides in adult S. mansoni. (A) Mixed sex, adult S. mansoni were incubated for 48 h with 5 μM gallinamide A or 1, 6, and 9. After washing and preparation of worm extract, proteolytic activities (0.2 μg of protein) were measured in a kinetic assay using the cathepsin B and L substrate, Cbz–Phe–Arg–AMC (SmCatB/L, gray bars) at pH 5.5 or the prolyl oligopeptidase substrate, Cbz–Gly–Pro–AMC (SmPOP, white bars) at pH 8.0. Means ± SE of three replicates are normalized to the control not exposed to the inhibitor (set as 100%). (B–D) Imaging of SmCB1 using the gallinamide compound 5 as an activity-based probe. 5 contains an alkyne tag that can be modified by a copper-catalyzed click reaction with a fluorescent reagent (Alexa Fluor 647-azide) (B). Recombinant SmCB1 (rSmCB1, 0.5 μg) (C) or extracts of adult S. mansoni worms (7 μg of protein) (D) were incubated with 5 (10 μM) for 1 h and then clicked. Reactions were resolved by SDS-PAGE, and gels were visualized using a fluorescence scanner (Probe), stained for protein using Coomassie Brilliant Blue (CBB), or analyzed by Western blot with an anti-SmCB1 antibody (WB). In a control experiment, rSmCB1 or worm extract was treated with the […] protease inhibitor E-64 (10 μM), prior to incubation with 5. The positions of rSmCB1, native SmCB1, and its pro-form (pro-SmCB1) are indicated. The mass difference between rSmCB1 and native SmCB1 is caused by glycosylation (see Methods). The active site of the pro-SmCB1 is shielded by a propeptide[45] that prevents effective binding of 5. […]
(§3) Proteolytic activities in S. mansoni adult extracts were measured in a continuous kinetic assay using the following peptidyl fluorogenic substrates (Bachem) or internally quenched FRET substrates (IOCB): 50 μM Cbz–Phe–Arg–AMC for cathepsins B and L,[13],[15] […] Substrate hydrolysis was measured continuously using an Infinite M1000 microplate reader (Tecan) at excitation and emission wavelengths of 360/465 nm for AMC substrates and 320/420 nm for FRET substrates. […]

Assay [3] has as its system cathepsins B and L (SmCatB/L). The assay is described as follows: Protease activity in extracts of adult worms treated with gallinamides, Cbz–Phe–Arg–AMC. It is filed as cell-based, S. mansoni. As to conditions: adult worms incubated with 5 μM compound for 24 h (Figure 2 legend: 48 h); extract assayed with Cbz–Phe–Arg–AMC at pH 5.5. On the procedure:
as §1, §2, §3

Setting [4] is: 1 μM compound, 24 h, scale 0 (no effect) to 4 (most severe).
The mark [5] stands for this setting: 1 μM compound, 48 h, scale 0 to 4.
Where [6] appears, read: 1 μM compound, 72 h, scale 0 to 4.
Setting [7] is: 10 µM compound, 24 h, scale 0 to 4.
[8] abbreviates: 10 µM compound, 48 h, scale 0 to 4.
Setting [9] is: 10 µM compound, 72 h, scale 0 to 4.

Molecules are shown by their SMILES.

Regarding `CCC(C)C(C(=O)OC(CC(C)C)C(=O)NC(CC(C)C)C(=O)NC(C)C=CC(=O)N1C(=O)C=C(OC)C1CC(C)C)N(C)C` (stereo not shown) [compound 1], the schistosomula phenotype descriptors entry in assay [1] (1 µM compound, 24 h) is reported as “R, unc”. For the same molecule, the schistosomula severity score is listed as 2 in assay [1] (setting [4]); 4 in assay [1] (setting [5]); 4 in assay [1] (setting [6]); 4 in assay [1] (setting [7]); 4 in assay [1] (setting [8]); 4 in assay [1] (setting [9]). The “SmPOP activity after gallinamide treatment” value (“SmPOP activity” below) in assay [2] is given as “unaffected”. The “protease activity reduced relative to untreated controls” value in assay [3] is roughly 95%.

With `COC1=CC(=O)N(C(=O)/C=C/[C@H](C)NC(=O)[C@H](CC(C)C)NC(=O)[C@H](CC(C)C)OC(=O)[C@H](Cc2ccccc2)N(C)C)[C@H]1Cc1ccccc1` [compound 6], the schistosomula phenotype descriptors entry in assay [1] (1 µM compound, 24 h) is listed as “R, unc”. Moreover, the schistosomula severity score came to 2 in assay [1] (setting [4]); 4 in assay [1] (setting [5]); 4 in assay [1] (setting [6]); 4 in assay [1] (setting [7]); 4 in assay [1] (setting [8]); 4 in assay [1] (setting [9]). The “SmPOP activity” value in assay [2] is “unaffected”. For the same molecule, the “protease activity reduced relative to untreated controls” value in assay [3] is roughly 95%.

With `CCC(C)C(C(=O)OC(CC(C)C)C(=O)NC(CC(C)C)C(=O)NC(C)C=CC(=O)N1C(=O)C=C(OC)C1Cc1ccccc1)N(C)C` (stereo not shown) [compound 9], the schistosomula severity score came to 1 in assay [1] (setting [4]); 2 in assay [1] (setting [5]); 4 in assay [1] (setting [6]); 3 in assay [1] (setting [7]); 4 in assay [1] (setting [8]); 4 in assay [1] (setting [9]). Besides, the schistosomula phenotype descriptors result in assay [1] (1 µM compound, 48 h) is given as “Dark, R”; in assay [1] (10 µM compound, 24 h), “Dark, R, S”. In addition, in assay [2], the “SmPOP activity” value is reported as “unaffected”. Besides, the “protease activity reduced relative to untreated controls” value in assay [3] is on record as roughly 95%.

With `CC[C@H](C)[C@@H](C(=O)O[C@@H](CC(C)C)C(=O)N[C@@H](CC(C)C)C(=O)N[C@@H](C)/C=C/C(=O)N1C(=O)C=C(OC)[C@@H]1C)N(C)C` [gallinamide A], the schistosomula severity score in assay [1] (setting [4]) is on record as 1; in assay [1] (setting [5]), 2; in assay [1] (setting [6]), 4; in assay [1] (setting [7]), 4; in assay [1] (setting [8]) it was 4; in assay [1] (setting [9]), 4. The schistosomula phenotype descriptors result in assay [1] (1 µM compound, 48 h) was “Dark, R”. Further, the “SmPOP activity” value in assay [2] is on record as “unaffected”. The “protease activity reduced relative to untreated controls” value in assay [3] was roughly 95%.

The record behind these values is paper PMC11184554, “Nature-Inspired Gallinamides Are Potent Antischistosomal Agents: Inhibition of the Cathepsin B1 Protease Target and Binding Mode Analysis” (ACS Infectious Diseases, 2024).
